Among the data in patent US8039430B2 (University of Wollongong, priority 2005, dated 2011) are inhibition, susceptibility rates and MIC values, retold here.

Where a name gives a salt, the structure may show the parent alone. A value given as a limit tells only on which side of the number the result lay.

The target of one assay is T1, HIV integrase enzyme (Human immunodeficiency virus type 1 group M subtype B, UniProt P04585).
T1 construct: against the HIV integrase enzyme
The assay is described as follows: HIV integrase initial screening (3′ processing function). The note with it: Example 2 compounds; Conc. 50 μg/mL; 3′ processing function of the enzyme. The assay is classed as biochemical. The text has this:
Compounds synthesized in Example 2 were additionally included in a random database screening strategy against the HIV integrase enzyme.
The compounds that were chosen to be tested against HIV integrase were 78, 81, 88 and 89 and the results are represented in Table 4.
The results for the screening of the four target molecules 165-168 against the HIV integrase enzyme yielded some encouraging results which supported the proposed mechanism of binding in the active binding trench of the HIV integrase enzyme. The testing procedure for the four target compounds differed from the original screening protocols employed. The original screening measured inhibition against the 3′ processing function of the enzyme at the fixed concentration of 50 μg/mL, whereas the four target molecules were tested in an assay adapted from a literature procedure,^107 which measures inhibition against the 3′ strand transfer function of the enzyme. This allows a result to be obtained as an inhibition constant (IC50) concentration, which is the standard measurement of inhibition within the literature. Along with the four target molecules, 88 was also re-tested in the 3′ strand transfer assay to determine the IC50 for direct comparison with the literature.

In a further assay the test system is MRSA isolates. The note with it: 43 MRSA isolates from adults with community respiratory infections; cited from earlier work.
Assay [1] has as its system #820 E. faecium van A ST17. The assay is described as follows: Antibacterial assay (MIC), VRE strain #820, Enterococossel Broth, Example 1. The note with it: Enterococcus faecium; Example 1 compounds; VRE #820 E. faecium van A; 24 hrs, 37° C.; read-out: 820 (minimum inhibitory concentration). The class given is cell-based, Enterococcus faecium. A digest of the protocol:
(§1)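 Broth microdilution MIC vs E. faecium VRE strains grown in Enterococossel broth, inoculum 1/1000 of overnight culture; compounds tested in triplicate at 125–0.98 ug/ml (2-fold), top-well DMSO 2.5%. Plates incubated 24 h at 37 °C; MIC read as clear well, no pellet and no black colouring of medium.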

Assay [2] relates to #449 E. faecium van B ST17. Briefly: Antibacterial assay (MIC), VRE strain #449, Enterococossel Broth, Example 1. The class given is cell-based, Enterococcus faecium. The note with it: Enterococcus faecium; Example 1 compounds; VRE #449 E. faecium van B; 24 hrs, 37° C.; read-out: 449 (minimum inhibitory concentration). A digest of the protocol: (§2)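 Broth microdilution in Enterococossel Broth, triplicate twofold dilutions from 125 to 0.98 ug/ml, inoculated with 1/1000-diluted overnight E. faecium van B culture. Incubated 24 h at 37° C with slow rotation. MIC read as lowest concentration without pellet or black medium; first-row DMSO 2.5%.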

Assay [3] relates to Staphylococcus aureus Mu50 (ATCC 700699). Briefly: MIC determination by micro-broth dilution (NCCLS), S. aureus Mu50. The note with it: ATCC700699, Example 1 compounds, Mueller Hinton II broth, 24 hours, 37° C. The class given is cell-based. On the procedure: (§3) Antibacterial Assay Methods for Staphylococcus aureus Mu50 (ATCC 700699), Methicillin-Resistant Staphylococcus aureus (ATCC 43300), Multi-Drug-Resistant Staphylococcus epidermidis (ATCC 700562) Compounds
(§4) The compounds were stored at room temperature in the dark prior to use. Each compound was solubilized in DMSO to a final concentration of 40 mg/mL. The stock material was diluted to a concentration equivalent to two times the final in-well high test concentration (100 μg/mL for all experimental compounds) in Mueller Hinton II broth. […] Vancomycin and oxacillin were obtained from Sigma Aldrich Chemical Company and were used as positive and/or negative control compounds in the reported assays at high test concentrations of 100, 25 and 100 μg/mL respectively.
(§5) The bacterial strains employed in these assays were obtained from the American Type Culture Collection (ATCC). All of the bacterial strains were propagated as recommended by the ATCC. Each strain was stored as a frozen glycerol stock at −80° C. and a 10 μL loop of the frozen stocks was used to inoculate each culture for these assays.
(§6) The susceptibility of the above microorganisms to the test compounds was evaluated by determining the MIC of each compound using micro-broth dilution analysis according to the methods recommended by the NCCLS. All microbial strains were obtained from American Type Culture Collections (ATCC) and cultured according to the suppliers recommendations. Evaluation of the susceptibility of each organism against the test compounds included a positive control antibiotics Vancomycin and Oxacillin. For each organism, a standardized inoculum was prepared by direct suspension of freshly plated colonies in Mueller Hinton II broth to an optical density 625 nm (OD625) of 0.1 (equivalent to a 0.5 McFarland standard). The suspended inoculum was diluted to a concentration of approximately 1×10^6 colony forming units per milliliter (CFU/mL) and 100 μL placed into triplicate wells of a 96-well plate containing 100 μL of test compound serially diluted 2-fold in Mueller Hinton II broth. One hundred microliters of the inoculum was also added to triplicate wells containing 100 μL of two-fold serial dilutions of a positive control antibiotic and to wells containing 100 μL of media only. This dilution scheme yielded final concentrations for each microbial organism estimated to be 5×10^5 CFU/mL (verified by colony quantification on appropriate agar plates, data is not presented). Test compound concentrations ranged from a high-test of 1:2 (100 μg/mL)) to a low test of 1:2048 (0.1 μg/mL) using a two-fold dilution scheme. The plates were incubated for 24 hours at 37° C., and the microbial growth at each concentration of compound was determined by measuring the optical density at 625 nm on a Molecular Devices SpectraMax Plus-384 plate reader.
(§7) Microsoft Excel 2003 was used to analyze and graph the data, and the MIC (minimal inhibitory concentration) was determined from the resulting data.
(In general: In broth dilution the organism is exposed to a series of concentrations in liquid medium.)

Assay [4] deals with Methicillin-Resistant Staphylococcus aureus (ATCC 43300). The assay is described as follows: MIC determination by micro-broth dilution (NCCLS), methicillin-resistant S. aureus. The note with it: ATCC43300, Example 1 compounds, Mueller Hinton II broth, 24 hours, 37° C. The assay is classed as cell-based. On the procedure: as §3, §4, §5, §6, §7
Assay [5] concerns #987 E. faecium van B ST39. Briefly: Antibacterial assay (MIC), VRE strain #987, Enterococossel Broth, Example 1. The note with it: Enterococcus faecium; Example 1 compounds; VRE #987 E. faecium van B; 24 hrs, 37° C.; read-out: 987 (minimum inhibitory concentration). The class given is cell-based, Enterococcus faecium. The essentials: as §1
The test system of assay [6] is #243 E. faecium van B ST17. Briefly: Antibacterial assay (MIC), VRE strain #243, Enterococossel Broth, Example 1. The assay is classed as cell-based, Enterococcus faecium. The note with it: Enterococcus faecium; Example 1 compounds; VRE #243 E. faecium van B; 24 hrs, 37° C.; read-out: 243 (minimum inhibitory concentration). The essentials: as §2
Assay [7] concerns Multi-Drug-Resistant Staphylococcus epidermidis (ATCC 700562). Briefly: MIC determination by micro-broth dilution (NCCLS), multi-drug-resistant S. epidermidis. The assay is classed as cell-based. The note with it: ATCC700562, Example 1 compounds, Mueller Hinton II broth, 24 hours, 37° C. On the procedure:
as §3, §4, §5, §6, §7

In assay [8] the test system is Staphylococcus aureus (ATCC 6538P). Briefly: Antibacterial assay (MIC), Staphylococcus aureus ATCC 6538P, Luria Broth, Example 1. The note with it: Staphylococcus aureus, ATCC6538P; Example 1 compounds; S. aureus ATCC 6538P; 24 hrs, 37° C.; range if at least two of three values fell within it; read-out: Sa (minimum inhibitory concentration). The assay is classed as cell-based. The essentials: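 Broth microdilution in Luria Broth, 2-fold series from 125 to 0.98 ug/ml in triplicate, with 1/1000-diluted overnight culture; up to 2.5% DMSO. Incubated 24 hrs at 37° C with slow rotation; MIC read as lowest concentration giving a clear well without bacterial pellet.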

Take `C=CCOc1ccc(C[C@H](NC(C)=O)C(=O)N[C@@H](CCCCNC(=N)N)C(=O)N[C@@H](CC=C)C(=O)OC)cc1` [Compound 88, Methyl(2S,5S,8S)-2-allyl-9-(4-allyloxyphenyl)-5-(4-[guanidino]butyl)-3,6,9-triaza-4,7,10-trioxoundecanoate hydrochloride]: the inhibition at 50 µg/mL on HIV integrase enzyme is 95%.
Same read-out and setting: to `C=CCOc1ccc(C[C@H](NC(C)=O)C(=O)N[C@@H](CCCNC(=N)N)C(=O)N[C@@H](CC=C)C(=O)OC)cc1` [Compound 81, Methyl(2S,5S,8S)-2-allyl-8-(4-allyloxybenzyl)-3,6,9-triaza-5-(3-[guanidino]propyl)-4,7,10-oxoundecanoate hydrochloride] belongs 70%; to `COC(=O)[C@@H]1CC=CCOc2ccc(cc2)C[C@H](NC(C)=O)C(=O)N[C@@H](CCCCNC(=N)N)C(=O)N1` [Compound 89, (7S,10S,13S,4E/Z)-13-Acetamido-10-(4-[guanidino]butyl)-8,11-diaza-7-methoxycarbonyl-2-oxa-9,12-dioxo-1(1,4)phenylenacyclotetradecaphane-4-ene hydrochloride], 4%.
Turning to `CC[C@H]1OC(=O)[C@H](C)[C@@H](O[C@H]2C[C@@](C)(OC)[C@@H](O)[C@H](C)O2)[C@H](C)[C@@H](O[C@@H]2O[C@H](C)C[C@H](N(C)C)[C@H]2O)[C@](C)(O)C[C@@H](C)C(=O)[C@H](C)[C@@H](O)[C@]1(C)O` [erythromycin], the susceptibility rates with MRSA isolates is on record as 12%.
On to `C=CCOc1ccc(C[C@H](NC(C)=O)C(=O)N[C@@H](CCCCN)C(=O)N[C@@H](CC=C)C(=O)OC)cc1` [Compound 78, hydrochloride], for which the inhibition at 50 µg/mL on HIV integrase enzyme turned out to be 15%.
With gentamicin, the susceptibility rates in the assay on MRSA isolates is 86%.
With `CC(C)CCOc1ccc2ccccc2c1-c1c(OCC(=O)N[C@H](CCCCN)C(=O)N[C@H](CCCNC(=N)N)C(=O)N[C@@H](CC(C)C)c2nc(S(=O)(=O)O)c(-c3ccccc3)o2)ccc2ccccc12.Cl.Cl` (atropisomer, axis not shown) [Compound 17], the MIC in [1] was in the range of 15.7 to 62.5 µg/mL; in assay [2] it was 15.7 to 62.5 µg/mL; in assay [3] it was 0.99 to 15.6 µg/mL; in [4], 0.99 to 15.6 µg/mL; in assay [5], 15.7 to 62.5 µg/mL; in assay [6], 15.7 to 62.5 µg/mL. In addition, the MIC was 0.99 to 15.6 µg/mL in assay [7] and under 0.98 µg/mL in [8].

By inhibition is commonly meant the drop in the measured response relative to a control, in per cent.
